Laboratory results reported in PubChem BioAssay (NCI).
“And” between values parts separate entries of the source, which are not always exact repeats. Equal values may be shown once.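 Grown in 96-well plates, cells were treated for 48 hours with each compound at five concentrations. Insufficient inhibition: endpoint recorded as highest concentration tested. GI50 marks 50% less growth. TGI marks complete inhibition of growth.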

Experiments:
Assay in all cases: NCI-60 cell line screen, 48 h
A549 NSCLC = tested on: A549 NSCLC
UACC-257 melanoma = tested on: UACC-257 melanoma
HCC-2998 colon = tested on: HCC-2998 colon
HL-60(TB) leukemia = tested on: HL-60(TB) leukemia
U251 CNS = tested on: U251 CNS
HCT-15 colon = tested on: HCT-15 colon
LOX IMVI melanoma = tested on: LOX IMVI melanoma
IGROV1 ovarian = tested on: IGROV1 ovarian
MALME-3M melanoma = tested on: MALME-3M melanoma
ACHN renal = tested on: ACHN renal
UACC-62 melanoma = tested on: UACC-62 melanoma
OVCAR-5 ovarian = tested on: OVCAR-5 ovarian
MDA-MB-435 = tested on: MDA-MB-435
T-47D breast = tested on: T-47D breast

| Structure (SMILES) | TGI (A549 NSCLC) | TGI (UACC-257 melanoma) | TGI (HCC-2998 colon) | TGI (HL-60(TB) leukemia) | TGI (U251 CNS) | TGI (HCT-15 colon) | TGI (LOX IMVI melanoma) | TGI (IGROV1 ovarian) | TGI (MALME-3M melanoma) | TGI (ACHN renal) | TGI (UACC-62 melanoma) | TGI (OVCAR-5 ovarian) | TGI (MDA-MB-435) | TGI (T-47D breast) | GI50 (HL-60(TB) leukemia) | GI50 (LOX IMVI melanoma) | GI50 (MALME-3M melanoma) |
| --- | --- | --- | --- | --- | --- | --- | --- | --- | --- | --- | --- | --- | --- | --- | --- | --- | --- |
| Cc1nc2nn(C)cc2c(=O)n1/N=C/c1ccccc1 | > 100 µM | > 100 µM | > 100 µM | > 100 µM | > 100 µM | > 100 µM | > 100 µM | > 100 µM | > 100 µM | > 100 µM | > 100 µM | > 100 µM | – | – | – | – | – |
| COc1ccc(/C=C(\Cl)c2ccc(OC)cc2)cc1 | > 100 µM | > 100 µM | > 100 µM | > 100 µM | > 100 µM | – | > 100 µM | – | > 100 µM | > 100 µM | 99.1 µM | > 100 µM | – | – | – | – | – |
| O=C1c2ccccc2C(=O)c2c(O)c(NCCNCCO)cc(O)c21 | 13.5 µM | 19.6 µM | 13.7 µM | 14.1 µM | – | 14.1 µM | 15.5 µM | 6.62 µM | 26.5 µM | 8.93 µM | 23.8 µM | 21.8 µM | – | – | – | – | – |
| CC(C)(C)N=c1n(C(C)(C)C)oc(=O)n1-c1ccccc1 | > 50 µM | > 50 µM | – | > 50 µM | > 50 µM | > 50 µM | > 50 µM | > 50 µM | > 50 µM | > 50 µM | > 50 µM | > 50 µM | > 50 µM | – | – | – | – |
| Cn1nc(C(=O)N2CC(CCl)c3c2cc([N+](=O)[O-])c2ccccc32)cc1NC(=O)Nc1cc(C(=O)N2CC(CCl)c3c2cc([N+](=O)[O-])c2ccccc32)nn1C (configuration not stated) | > 100 µM | > 100 µM | > 100 µM | – | > 100 µM | > 100 µM | – | – | > 100 µM | > 100 µM | > 100 µM | > 100 µM | > 100 µM | > 100 µM | – | – | – |
| c1cc(C[S+]2CCCC2)oc1C[S+]1CCCC1 | > 100 µM | > 100 µM | > 100 µM | – | > 100 µM | > 100 µM | > 100 µM | > 100 µM | > 100 µM | > 100 µM | > 100 µM | – | > 100 µM | > 100 µM | – | – | – |
| Cc1ccccc1NC(=O)CSc1nnc(Cc2ccccc2)o1 | > 100 µM | > 100 µM | > 100 µM | – | > 100 µM | > 100 µM | > 100 µM | > 100 µM | > 100 µM | > 100 µM | > 100 µM | > 100 µM | – | – | – | – | – |
| Cc1ccc(-n2cc(-c3ccc(Cl)cc3)c(C#N)c2N)cc1 | 43.2 µM | 27.9 µM | 28.4 µM | 90.7 µM | 27.3 µM | 25 µM | 29.8 µM | 29.9 µM | 33.1 µM | 50 µM | 29.9 µM | 30.6 µM | 32.7 µM | – | – | – | – |
| Cc1ccc(F)c2c(=O)cc(-c3ccccc3)[nH]c12 | > 100 µM | > 100 µM | – | > 100 µM | > 100 µM | > 100 µM | > 100 µM | > 100 µM | > 100 µM | > 100 µM | > 100 µM | > 100 µM | – | – | – | – | – |
| CN(C)Cc1[nH]c2ccccc2c1C(=O)c1ccccc1 | > 100 µM | > 100 µM | > 100 µM | > 100 µM | > 100 µM | > 100 µM | – | > 100 µM | > 100 µM | > 100 µM | > 100 µM | > 100 µM | – | – | – | – | – |
| c1ccc(CSC(SCc2ccccc2)c2ccc3c(c2)OCO3)cc1 | > 10 µM | > 10 µM | > 10 µM | > 10 µM | > 10 µM | > 10 µM | > 10 µM | > 10 µM | > 10 µM | > 10 µM | > 10 µM | – | – | > 10 µM | – | – | – |
| CC(=O)C1=NN(c2ccccc2)C2(S1)SC(c1ccccc1)(c1ccccc1)c1ccccc12 (configuration not stated) | > 100 µM | > 100 µM | > 100 µM | > 100 µM | > 100 µM | > 100 µM | > 100 µM | > 100 µM | > 100 µM | > 100 µM | 48.7 µM | – | – | – | – | – | – |
| COc1ccccc1Cn1[nH]c(=O)c2cc([N+](=O)[O-])ccc21 | > 100 µM | > 100 µM | > 100 µM | > 100 µM | – | > 100 µM | > 100 µM | > 100 µM | > 100 µM | > 100 µM | > 100 µM | > 100 µM | > 100 µM | – | – | – | – |
| Cc1cc(C(O)CNC(C)CCn2cnc3c2c(=O)n(C)c(=O)n3C)ccc1O (configuration not stated) | > 100 µM | > 100 µM | – | – | > 100 µM | > 100 µM | > 100 µM | > 100 µM | > 100 µM | > 100 µM | > 100 µM | > 100 µM | > 100 µM | > 100 µM | – | – | – |
| COC(=O)[C@@H]1[C@H](O)CC[C@H]2[C@@]1(C)CC[C@@H](C)[C@]2(COC(C)=O)CC(=O)c1ccoc1 | > 50 µM | > 50 µM | – | > 50 µM | > 50 µM | > 50 µM | > 50 µM | > 50 µM | – | > 50 µM | > 50 µM | > 50 µM | > 50 µM | > 50 µM | – | – | – |
| CC(Nc1n[nH]c(=O)c2c1nnn2Cc1ccccc1)c1ccccc1 (configuration not stated) | > 100 µM | > 100 µM | > 100 µM | > 100 µM | > 100 µM and 88.7 µM | > 100 µM | > 100 µM | – | > 100 µM | > 100 µM | – | > 100 µM | > 100 µM | – | 37.4 µM and > 100 µM | > 100 µM and 32.7 µM | > 100 µM and 24.7 µM |
| CCCOP(=S)(N1CC1)N1CC1 | > 100 µM | 46.5 µM | > 100 µM | > 100 µM | > 100 µM | > 100 µM | > 100 µM | > 100 µM | > 100 µM | > 100 µM | > 100 µM | > 100 µM | – | – | – | – | – |
| O=C(Nc1ccc(S(=O)(=O)Nc2ncccn2)cc1)c1c2ccccc2nc2ccccc12 | > 100 µM | > 100 µM | > 100 µM | > 100 µM | > 100 µM | > 100 µM | > 100 µM | > 100 µM | > 100 µM | > 100 µM | > 100 µM | > 100 µM | > 100 µM | – | – | – | – |
| CCOC(=O)c1c(NC(=O)c2ccc(Br)cc2)sc2c1CCCC2 | > 100 µM | > 100 µM | – | > 100 µM | > 100 µM | – | – | > 100 µM | – | > 100 µM | > 100 µM | > 100 µM | > 100 µM | > 100 µM | – | – | – |
